According to US10080804B2, “Conjugate with target-finding ligand and use thereof” (ethris GmbH, priority 2009, dated 2018):

Assays:
[1] = molecular target: T1, human IP1 receptor (Homo sapiens, UniProt P43119); assay: Inhibition of FLUO-BSA-ILO receptor binding/uptake with CAY10449 on 16HBE14o-cells (FACS); format: cell-based; conditions: 25 nM conjugate, increasing CAY10449 (15, 30, 150 μM) or excess of unconjugated ILO
T1 construct: The expression of IP1 receptor in human alveolar (A549) and bronchial (BEAS-2B, 16HBE14o-) epithelial cells was confirmed by Western blot analysis; endogenous in cells; host or cells: 16HBE14o- human bronchial epithelial cells
Description: 24-well plates were prepared as described above. CAY10449 was diluted in MEM to concentrations of 15 μM, 30 μM and 150 μM, and the mixtures were incubated at 37° C. for 15 min. […] The binding/uptake was measured using FACS.

[2] = system: H441 cells; assay: FACS receptor binding/uptake of fluorescein-BSA conjugates; format: cell-based, human; conditions: 0.5 μM conjugate, 4 h, 37° C.
Description: (§1) For the FACS measurement experiments, 100 000 cells/well were seeded in 24-well plates (TPP, Trasadingen, Switzerland) 24 hours before adding the conjugates. […] After the cells had been washed with PBS, the cells were removed from the wells by treatment with trypsin, and the FACS measurements were carried out using a Beckton-Dickinson FACS scan (San Jose, USA). For the confocal laser scanning microscopy, the experiments were carried out on slides with 4 chambers from BD Falcon Culture (BD Biosciences San Jose, USA) with 25 000 cells per chamber. The incubation of FLUO-BSA-ILO and FLUO-BSA was performed as described above. The cells were washed and fixed in 4% paraformaldehyde, and the nuclei were subsequently stained with 0.33 μM DAPI (4′,6-diamidino-2-phenylindole) and F-actin with Alexafluor® 568 Falloidin (Invitrogen GmbH, Karlsruhe, Germany) using standard protocols. The slides were covered with medium (Vectashield, Vector Laboratories Inc., Berlingame, USA), and images were taken with a confocal laser scanning microscope (Leica, Solms, Germany).

[3] = system: BEAS-2B cells; assay: as above; format: cell-based, human; conditions: 0.5 μM conjugate, 4 h, 37° C.
Description: as §1

[4] = system: 16HBE14o-cells; assay: as above; format: cell-based, human; conditions: 0.5 μM conjugate, 4 h, 37° C.
Description: as §1

[5] = system: A549 cells; assay: as above; format: cell-based, human; conditions: 0.5 μM conjugate, 4 h, 37° C.
Description: as §1

[6] = system: 16HBE14o-cells; assay: Confocal laser scanning microscopy of surface binding and intracellular uptake; format: cell-based, human; conditions: 0.5 μM conjugate
Description: as §1

[7] = physiological environment, i.e. in the blood; cited from earlier work

T1 sequence (P43119 whole entry): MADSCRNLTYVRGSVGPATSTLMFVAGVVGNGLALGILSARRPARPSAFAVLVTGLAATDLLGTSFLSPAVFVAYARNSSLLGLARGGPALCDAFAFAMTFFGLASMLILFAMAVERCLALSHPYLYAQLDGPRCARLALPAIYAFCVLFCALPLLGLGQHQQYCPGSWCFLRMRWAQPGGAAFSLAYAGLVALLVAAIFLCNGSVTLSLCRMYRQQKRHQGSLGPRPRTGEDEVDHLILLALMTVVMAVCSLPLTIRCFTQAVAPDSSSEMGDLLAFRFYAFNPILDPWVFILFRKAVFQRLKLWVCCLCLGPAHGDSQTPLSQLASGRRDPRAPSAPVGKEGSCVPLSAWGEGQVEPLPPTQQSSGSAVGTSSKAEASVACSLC

Compound	effect of competitor on number of fluorescence-positive cells and MFI [1]	positive cells (H441) [2]	positive cells (BEAS-2B) [3]	positive 16HBE14o-cells [4]	positive A549 cells [5]	cell surface binding and intracellular uptake (confocal microscopy) [6]	half-life [7]
CC(C)Oc1ccc(Cc2ccc(NC3=NCCN3)cc2)cc1 [CAY10449]	significant dose-dependent reduction						
FLUO-BSA: fluorescein-labeled bovine serum albumin, control without ligand	no activity	9.1±1.9%	13.7±1.2%	unspecific background binding	unspecific background binding	no uptake	
CCCCC[C@H](O)/C=C/[C@@H]1[C@H]2C/C(=C/CCCC(=O)O)O[C@H]2C[C@H]1O [prostacyclin]							only a few minutes
